In the kinase profiling compilation of Christmann-Franck et al. (2016) one finds kinase still bound, per cent of control data, which are given here for nine compounds.

Test in all cases: KINOMEscan competition binding
Settings in all cases: compound 10.0 µM

In experiment [1] the test system is ABL1 (human), P00519 [E255K].
Experiment [2] concerns ABL1 (human), P00519 [M351T].
Experiment [3] concerns KIT (human), P10721 [V559D/T670I].
In experiment [4] the test system is PIK3CA (human), P42336 [H1047Y].
Experiment [5] deals with EIF2AK4 KD2 (human), Q9P2K8 [S808G].
Experiment [6] has as its system FLT3 (human), P36888 [N841I].
Experiment [7] deals with PIK3CA (human), P42336 [I800L].
For experiment [8], the system named is KIT (human), P10721 [V559D].
Experiment [9] concerns PIK3CA (human), P42336 [C420R].
For experiment [10], the system named is PIK3CA (human), P42336 [E545K].
In experiment [11] the test system is PIK3CA (human), P42336 [E545A].
For experiment [12], the system named is KIT (human), P10721 [D816V].
The test system of experiment [13] is PIK3CA (human), P42336 [Q546K].
Experiment [14] relates to FLT3 (human), P36888 [K663Q].
Experiment [15] relates to FLT3 (human), P36888 [ITD].
In experiment [16] the test system is EGFR (human), P00533 [L861Q].
The test system of experiment [17] is EGFR (human), P00533 [746-750 del].
In experiment [18] the test system is EGFR (human), P00533 [G719S].
The test system of experiment [19] is EGFR (human), P00533 [P753S; 747-752 del].

Sequence of KIT (human), P10721 [V559D/T670I] (P10721 whole entry V559D/T670I, looked up): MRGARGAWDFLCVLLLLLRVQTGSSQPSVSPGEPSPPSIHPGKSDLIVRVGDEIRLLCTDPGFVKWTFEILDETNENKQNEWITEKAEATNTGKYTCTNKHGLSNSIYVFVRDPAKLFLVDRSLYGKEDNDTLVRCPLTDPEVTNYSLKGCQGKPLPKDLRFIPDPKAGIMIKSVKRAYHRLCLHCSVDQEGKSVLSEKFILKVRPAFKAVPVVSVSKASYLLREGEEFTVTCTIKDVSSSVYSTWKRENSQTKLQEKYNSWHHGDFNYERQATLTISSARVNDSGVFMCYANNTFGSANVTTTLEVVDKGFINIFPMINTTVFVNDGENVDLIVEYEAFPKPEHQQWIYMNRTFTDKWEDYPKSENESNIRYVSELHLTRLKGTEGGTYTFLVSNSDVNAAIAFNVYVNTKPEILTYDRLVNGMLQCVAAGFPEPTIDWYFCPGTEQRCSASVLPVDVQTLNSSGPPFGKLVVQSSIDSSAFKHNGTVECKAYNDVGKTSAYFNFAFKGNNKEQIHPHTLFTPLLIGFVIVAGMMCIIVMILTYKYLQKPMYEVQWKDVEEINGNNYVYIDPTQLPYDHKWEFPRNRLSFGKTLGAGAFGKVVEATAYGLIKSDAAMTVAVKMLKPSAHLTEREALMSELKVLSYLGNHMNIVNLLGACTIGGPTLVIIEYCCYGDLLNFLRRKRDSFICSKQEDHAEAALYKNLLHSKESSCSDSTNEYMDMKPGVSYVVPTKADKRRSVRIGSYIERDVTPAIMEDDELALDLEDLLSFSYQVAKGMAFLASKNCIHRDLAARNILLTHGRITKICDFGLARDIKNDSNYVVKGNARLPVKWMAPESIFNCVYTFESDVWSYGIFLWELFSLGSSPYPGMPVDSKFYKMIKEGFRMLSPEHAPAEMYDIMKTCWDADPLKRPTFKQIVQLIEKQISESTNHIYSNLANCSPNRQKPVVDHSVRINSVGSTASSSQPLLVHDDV
Sequence of EIF2AK4 KD2 (human), Q9P2K8 [S808G] (Q9P2K8 whole entry S808G, looked up): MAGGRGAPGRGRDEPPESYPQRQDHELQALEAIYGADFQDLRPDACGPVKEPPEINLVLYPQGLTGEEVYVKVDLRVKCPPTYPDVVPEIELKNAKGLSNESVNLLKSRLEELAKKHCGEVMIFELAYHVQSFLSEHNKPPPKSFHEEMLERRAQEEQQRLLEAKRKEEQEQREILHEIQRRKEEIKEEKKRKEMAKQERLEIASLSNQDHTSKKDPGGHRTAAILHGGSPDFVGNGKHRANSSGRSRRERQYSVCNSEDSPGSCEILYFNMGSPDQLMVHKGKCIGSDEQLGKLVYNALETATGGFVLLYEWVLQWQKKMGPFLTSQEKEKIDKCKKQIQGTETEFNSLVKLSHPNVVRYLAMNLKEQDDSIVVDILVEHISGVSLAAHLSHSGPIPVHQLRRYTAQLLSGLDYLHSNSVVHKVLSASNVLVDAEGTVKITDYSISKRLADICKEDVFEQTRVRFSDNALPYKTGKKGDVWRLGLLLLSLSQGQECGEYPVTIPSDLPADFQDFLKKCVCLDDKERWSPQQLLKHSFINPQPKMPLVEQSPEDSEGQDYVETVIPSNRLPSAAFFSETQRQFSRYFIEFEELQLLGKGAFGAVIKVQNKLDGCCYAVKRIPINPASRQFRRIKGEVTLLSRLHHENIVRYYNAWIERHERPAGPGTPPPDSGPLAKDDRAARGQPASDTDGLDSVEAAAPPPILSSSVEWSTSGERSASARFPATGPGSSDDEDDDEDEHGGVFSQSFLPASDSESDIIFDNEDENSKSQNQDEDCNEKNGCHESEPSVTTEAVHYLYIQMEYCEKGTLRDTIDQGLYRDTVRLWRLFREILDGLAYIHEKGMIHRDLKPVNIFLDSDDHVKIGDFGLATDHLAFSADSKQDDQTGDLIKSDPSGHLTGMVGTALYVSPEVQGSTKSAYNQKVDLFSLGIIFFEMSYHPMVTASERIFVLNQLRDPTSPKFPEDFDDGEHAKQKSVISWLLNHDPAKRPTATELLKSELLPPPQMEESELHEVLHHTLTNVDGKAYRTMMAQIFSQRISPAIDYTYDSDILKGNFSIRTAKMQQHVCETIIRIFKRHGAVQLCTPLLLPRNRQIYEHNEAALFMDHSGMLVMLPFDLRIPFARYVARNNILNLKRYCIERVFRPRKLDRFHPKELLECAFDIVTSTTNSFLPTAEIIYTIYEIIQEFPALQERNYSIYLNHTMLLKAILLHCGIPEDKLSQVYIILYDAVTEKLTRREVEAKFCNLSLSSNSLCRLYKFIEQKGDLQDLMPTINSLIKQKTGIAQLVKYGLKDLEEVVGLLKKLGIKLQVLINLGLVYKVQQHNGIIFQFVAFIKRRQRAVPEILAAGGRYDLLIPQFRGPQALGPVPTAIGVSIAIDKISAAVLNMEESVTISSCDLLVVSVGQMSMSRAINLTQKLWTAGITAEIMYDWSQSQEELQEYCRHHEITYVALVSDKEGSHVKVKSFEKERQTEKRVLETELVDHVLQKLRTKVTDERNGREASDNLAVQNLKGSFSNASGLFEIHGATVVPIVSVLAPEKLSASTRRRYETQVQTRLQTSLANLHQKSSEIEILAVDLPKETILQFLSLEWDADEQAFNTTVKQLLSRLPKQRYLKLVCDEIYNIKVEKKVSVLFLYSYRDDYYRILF
Sequence of PIK3CA (human), P42336 [E545K] (P42336 whole entry E545K, looked up): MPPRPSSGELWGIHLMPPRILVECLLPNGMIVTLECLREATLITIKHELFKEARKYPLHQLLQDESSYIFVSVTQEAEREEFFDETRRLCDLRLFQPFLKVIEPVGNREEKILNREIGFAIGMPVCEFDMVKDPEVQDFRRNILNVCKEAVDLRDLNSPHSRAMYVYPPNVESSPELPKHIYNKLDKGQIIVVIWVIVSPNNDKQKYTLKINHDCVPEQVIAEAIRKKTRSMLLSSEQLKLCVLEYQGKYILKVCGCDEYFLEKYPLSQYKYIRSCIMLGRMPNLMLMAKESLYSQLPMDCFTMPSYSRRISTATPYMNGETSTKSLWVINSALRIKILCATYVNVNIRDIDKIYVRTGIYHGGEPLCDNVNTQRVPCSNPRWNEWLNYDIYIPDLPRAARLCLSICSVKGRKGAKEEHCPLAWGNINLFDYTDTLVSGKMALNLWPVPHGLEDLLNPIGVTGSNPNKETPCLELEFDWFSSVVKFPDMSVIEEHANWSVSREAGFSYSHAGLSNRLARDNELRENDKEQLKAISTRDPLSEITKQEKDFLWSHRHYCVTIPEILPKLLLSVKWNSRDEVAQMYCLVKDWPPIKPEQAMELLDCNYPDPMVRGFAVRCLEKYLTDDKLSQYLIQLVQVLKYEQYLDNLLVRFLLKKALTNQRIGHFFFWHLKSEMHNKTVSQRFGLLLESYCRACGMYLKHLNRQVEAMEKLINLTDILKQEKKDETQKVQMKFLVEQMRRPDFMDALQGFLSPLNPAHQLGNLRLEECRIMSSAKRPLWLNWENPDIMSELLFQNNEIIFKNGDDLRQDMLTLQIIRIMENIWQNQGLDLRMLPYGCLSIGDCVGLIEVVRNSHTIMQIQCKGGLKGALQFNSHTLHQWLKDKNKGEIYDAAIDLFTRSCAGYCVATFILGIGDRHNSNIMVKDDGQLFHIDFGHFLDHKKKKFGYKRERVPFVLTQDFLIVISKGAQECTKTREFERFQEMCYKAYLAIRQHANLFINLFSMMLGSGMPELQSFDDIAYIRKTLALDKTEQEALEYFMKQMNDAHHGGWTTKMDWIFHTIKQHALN
Sequence of PIK3CA (human), P42336 [I800L] (P42336 whole entry I800L, looked up): as the sequence (P42336 whole entry E545K, looked up) above, with K545E, I800L counted along it
Sequence of KIT (human), P10721 [D816V] (P10721 whole entry D816V, looked up): as the sequence (P10721 whole entry V559D/T670I, looked up) above, with D559V, I670T, D816V counted along it
Sequence of PIK3CA (human), P42336 [E545A] (P42336 whole entry E545A, looked up): as the sequence (P42336 whole entry E545K, looked up) above, with K545A counted along it
Sequence of PIK3CA (human), P42336 [H1047Y] (P42336 whole entry H1047Y, looked up): as the sequence (P42336 whole entry E545K, looked up) above, with K545E, H1047Y counted along it
Sequence of KIT (human), P10721 [V559D] (P10721 whole entry V559D, looked up): as the sequence (P10721 whole entry V559D/T670I, looked up) above, with I670T counted along it
Sequence of PIK3CA (human), P42336 [Q546K] (P42336 whole entry Q546K, looked up): as the sequence (P42336 whole entry E545K, looked up) above, with K545E, Q546K counted along it
Sequence of PIK3CA (human), P42336 [C420R] (P42336 whole entry C420R, looked up): as the sequence (P42336 whole entry E545K, looked up) above, with C420R, K545E counted along it

For the compound `N#C/C(=C1/Nc2ccccc2S1)c1ccnc(NCCc2cccnc2)n1`, the kinase still bound, per cent of control in experiment [1] turned out to be 79%; in [2], 88%; in [3], 52%; in [4] it was 66%; in [5], 60%; in experiment [6], 48%. The kinase still bound, per cent of control in experiment [7] turned out to be 27%; in experiment [8], 26%; in experiment [9], 86%; in [10] it was 96%; in [11] it was 41%; in [12], 50%. The kinase still bound, per cent of control in experiment [13] turned out to be 81%; in [14], 95%; in [15] it was 92%.

In the case of `CCN1CCN(Cc2ccc(NC(=O)c3ccc(C)c(/C=C/c4cnc5[nH]ccc5c4OC)c3)cc2C(F)(F)F)CC1`, the kinase still bound, per cent of control amounted to 0% in [16]; 1% in experiment [1]; 3.8% in [17]; 2.2% in experiment [2]; 0.05% in experiment [3]; 90% in [4]. Further, the kinase still bound, per cent of control in [5] was 0.6%; in experiment [6], 0.25%; in [7], 100%; in experiment [8], 0%; in [9] it was 100%; in [10], 100%. For the same compound, the kinase still bound, per cent of control in [18] was found to be 0%; in [11], 92%; in [12] it was 0.65%; in experiment [19] it was 0.55%; in [14] it was 0.05%; in experiment [15], 0.35%.

Turning to `CC(=O)c1c(C)c2cnc(Nc3ccc(N4CCNCC4)cn3)nc2n(C2CCCC2)c1=O`, the kinase still bound, per cent of control in [16] worked out at 82%; in [1], 44%; in [3] it was 61%; in experiment [4], 17%; in experiment [5] it was 0.4%; in experiment [6] it was 2.1%. The kinase still bound, per cent of control in experiment [7] worked out at 6%; in experiment [8], 45%; in experiment [9], 41%; in experiment [10], 75%; in experiment [11] it was 10%; in experiment [12], 74%. Further, the kinase still bound, per cent of control was determined as 87% in experiment [19], 10% in experiment [13], 30% in experiment [14] and 20% in experiment [15].

Consider `CCc1nc(-c2cccc(C)c2)c(-c2ccnc(NC(=O)c3ccccc3)c2)s1`, for which the kinase still bound, per cent of control in [1] was found to be 24%; in experiment [4] it was 50%; in experiment [5] it was 100%; in [6] it was 28%; in experiment [7], 99%; in experiment [8], 32%. Moreover, the kinase still bound, per cent of control is 72% in [9]; 98% in experiment [10]; 54% in experiment [11]; 5.6% in experiment [12]; 32% in [13]; 17% in [14]. In addition, the kinase still bound, per cent of control in experiment [15] came out at 50%.

For `N#CCNC(=O)c1ccc(-c2ccnc(Nc3ccc(N4CCOCC4)cc3)n2)cc1`, the kinase still bound, per cent of control in [16] is 66%; in experiment [1], 29%; in experiment [17] it was 100%; in experiment [2], 66%; in experiment [3] it was 45%; in [4] it was 100%. For the same compound, the kinase still bound, per cent of control was determined as 1.2% in [5]; 2.2% in experiment [6]; 16% in [8]; 100% in [9]; 100% in experiment [10]; 79% in [18]. The kinase still bound, per cent of control in experiment [12] was 16%; in experiment [19], 100%; in experiment [13], 100%; in [15] it was 22%.

With `COCC(=O)NC/C=C/c1ccc2ncnc(Nc3ccc(Oc4ccc(C)nc4)c(C)c3)c2c1`, the kinase still bound, per cent of control in [3] is 100%; in experiment [4], 47%; in experiment [5] it was 81%; in experiment [6], 79%; in [7], 100%; in [8] it was 17%. The kinase still bound, per cent of control worked out at 100% in experiment [10]; 33% in experiment [11]; 89% in experiment [12]; 38% in experiment [13]; 79% in experiment [14]; 87% in [15].

For `COc1cc2ncn(-c3cc(OCc4ccccc4C(F)(F)F)c(C(N)=O)s3)c2cc1OC`, the kinase still bound, per cent of control in experiment [16] was determined as 100%; in [1], 60%; in experiment [2], 81%; in [3] it was 21%; in experiment [4] it was 36%; in experiment [5] it was 16%. Moreover, the kinase still bound, per cent of control turned out to be 24% in experiment [7]; 21% in [8]; 100% in [9]; 90% in [10]; 98% in experiment [18]; 54% in [11]. Moreover, the kinase still bound, per cent of control was found to be 1.4% in experiment [12], 63% in experiment [19], 96% in experiment [13] and 26% in experiment [15].

Consider `C[C@@H](Oc1cc(-c2cnn(C3CCNCC3)c2)cnc1N)c1c(Cl)ccc(F)c1Cl`, for which the kinase still bound, per cent of control in [3] was found to be 7%; in [4], 18%; in [5] it was 100%; in [6], 2%; in experiment [8] it was 27%; in experiment [9], 71%. The kinase still bound, per cent of control in experiment [10] is 100%; in experiment [11], 21%; in experiment [12] it was 32%; in experiment [13], 17%; in experiment [14] it was 5.6%.

Consider `CNC(=O)c1cc(Oc2ccc(NC(=O)Nc3ccc(Cl)c(C(F)(F)F)c3)cc2)ccn1`, for which the kinase still bound, per cent of control in [3] was determined as 0.1%; in experiment [6], 0.25%; in experiment [8], 0.05%; in experiment [12], 3.6%; in experiment [14], 0.5%; in [15], 2.8%.
